Broadly, the IC50 is the concentration needed to halve the response being measured. By Emax is commonly meant the size of the effect at its maximum, as opposed to the concentration needed. Broadly, the LD50 is the dose expected to kill half of the subjects tested. One may read the Ki as a dissociation constant, usually derived from enzyme kinetics or from competition with a known ligand. A word on the EC50: it is the concentration giving half of the maximal effect. Broadly, the ED50 is the dose that gives a 50% effect, or the effect in half of the subjects.

Some results are limits rather than exact numbers.

A short description of data set [1]: Antagonist activity at 5HT1 in Wistar rat stomach fundus strip assessed as inhibition of 5-hydroxy-tryptamine evoked contraction preincubated for 20 mins followed by 5-HT addition. The data set is classed as tissue-based.
Another data set has as its target Endothelin-1 receptor (Homo sapiens, UniProt P25101). In words: Displacement of [3H]nicotine from Endothelin receptor type A (unknown origin). Background: Displacement assays read how much labelled ligand stays bound in the presence of the test substance.
The species named for data set [2] is Rattus norvegicus. Put plainly: Agonist activity at nAChR in rat striatal synaptosomes assessed as [3H]dopamine release relative to tetramethylammonium. The data set is classed as subcellular. As to conditions: Striatum, filed as agonist.
Data set [3] is described as follows: In vivo agonist activity at nAChR in rat assessed as serotonin level in cortex at 3.6 micromol/kg, sc by microdialysis relative to control. The format is functional. As to conditions: dose 3.6 µmol/kg.
The nature of data set [4]: Displacement of [3H]nicotine from sodium channel site2 (unknown origin). Details: species or system Homo sapiens.
The target of data set [5] is Muscarinic acetylcholine receptor M3 (Homo sapiens, UniProt P20309). Put plainly: Displacement of [3H]nicotine from muscarinic M3 receptor (unknown origin).
The target in the next data set is B2 bradykinin receptor (Homo sapiens, UniProt P30411). Put plainly: Displacement of […] from B2 bradykinin receptor (unknown origin).
A short description of data set [6]: Acute toxicity in po dosed dog administered as single dose for 28 days. As to conditions: in vivo, time 28 day. The format is organism-based, Canis lupus familiaris.
Data set [7] in a line: Acute toxicity in po dosed mouse administered as single dose for 28 days. The data set is classed as organism-based. The note with it: in vivo, time 28 day.
The nature of data set [8]: In vivo agonist activity at nAChR in rat assessed as nor-epinephrine level in cortex at 3.6 micromol/kg, sc by microdialysis relative to control. The note with it: dose 3.6 µmol/kg. The format is functional.
Data set [9] can be described thus: Acute toxicity in po dosed dog administered as repeated dose for 28 days. The format is organism-based, Canis lupus familiaris. As to conditions: in vivo, time 28 day.
The target of data set [10] is Gastrin/cholecystokinin type B receptor (Homo sapiens, UniProt P32239). In words: Displacement of [3H]nicotine from cholecystokinin receptor type B (unknown origin).
Data set [11] deals with 5-hydroxytryptamine receptor 2A (Homo sapiens, UniProt P28223). In words: Displacement of […] from 5-hydroxytryptamine receptor 2A (unknown origin).
In data set [12] the test system is Rattus norvegicus. Put plainly: Cognitive enhancing effect in Wistar rat assessed as reversal of scopolamine-induced amnesia at 0.6 micromol/kg, sc by passive-avoidance test relative to control. The data set is classed as functional. As to conditions: dose 0.6 µmol/kg.
For data set [13], the target named is T1, Neuronal acetylcholine receptor; alpha4/beta2 (Rattus norvegicus, UniProt P09483+P12390). In words: Inhbition of [3H] nicotine binding to rat brain alpha4beta2 nAChR.
The test system of data set [14] is Rattus norvegicus. In words: Memory enhancing effect in rat model of mecamylamine-induced amnesia assessed as decrease in latency to find platform at 0.3 to 3 micromol/kg, po by water-navigation test relative to control. The data set is classed as functional. Details: scale not given: the % may be the effect or the level left. As to conditions: dose 0.3-3 µmol/kg; at 0.3 to 3 µmol/kg.

Data set [15] addresses 5-hydroxytryptamine receptor 3A (Homo sapiens, UniProt P46098). In words: Displacement of […] from 5-hydroxytryptamine receptor 3A (unknown origin).
Data set [16] has as its target Neuropeptide Y receptor type 2 (Homo sapiens, UniProt P49146). In words: Displacement of [3H]nicotine from NPY2R (unknown origin).
The target in data set [17] is Muscarinic acetylcholine receptor M1 (Homo sapiens, UniProt P11229). Put plainly: Displacement of [3H]nicotine from muscarinic M1 receptor (unknown origin).
Data set [18] is described as follows: In vivo agonist activity at nAChR in rat assessed as acetylcholine level in cortex at 3.6 micromol/kg, sc by microdialysis relative to control. The format is functional. The note with it: dose 3.6 µmol/kg.
In a further data set the target is Thromboxane A2 receptor (Homo sapiens, UniProt P21731). Put plainly: Displacement of [3H]nicotine from Thromboxane A2 (unknown origin).
Another data set addresses Histamine H3 receptor (Homo sapiens, UniProt Q9Y5N1). Put plainly: Displacement of [3H]nicotine from Histamine H3 receptor (unknown origin).
Data set [19] is described as follows: Displacement of [3H]nicotine from angiotensin II receptor (unknown origin). Further details: species or system Homo sapiens.
For data set [20], the target named is T2, Neuronal acetylcholine receptor; alpha4/beta2 (Rattus norvegicus) (UniProt P09483+P12390). In words: Agonist activity at alpha4beta2 nAChR in rat thalamic synaptosomes assessed as 86Rb efflux relative to tetramethylammonium. The data set is classed as subcellular. As to conditions: Thalamus, filed as agonist.
Data set [21] can be described thus: Displacement of [3H]nicotine from dopamine D4.2 receptor (unknown origin). Further details: species or system Homo sapiens.
Data set [22] concerns the target Muscarinic acetylcholine receptor M2 (Homo sapiens, UniProt P08172). In words: Displacement of [3H]nicotine from muscarinic M2 receptor (unknown origin).
The target of data set [23] is Endothelin receptor type B (Homo sapiens, UniProt P24530). Put plainly: Displacement of [3H]nicotine from Endothelin receptor type B (unknown origin).
The nature of data set [24]: Displacement of [3H]nicotine from neurokinin receptor (unknown origin). Further details: species or system Homo sapiens.
Data set [25] in a line: Acute toxicity in po dosed mouse administered as repeated dose for 28 days. The data set is classed as organism-based. The note with it: in vivo, time 28 day.
For data set [26], the target named is T2, Neuronal acetylcholine receptor; alpha4/beta2 (Rattus norvegicus). Put plainly: Agonist activity at rat alpha4beta2 expressed in Xenopus oocytes assessed as peak activation at 100 uM relative to control. The data set is classed as cell-based. As to conditions: Oocyte, filed as agonist.
The target of data set [27] is T1, Neuronal acetylcholine receptor; alpha4/beta2.
Description: Agonist activity at alpha4beta2 nAChR in rat thalamic synaptosomes assessed as increase in 86Rb efflux
Data set [28] in a line: Displacement of [3H]nicotine from Leukotriene B4 receptor (unknown origin). Further details: species or system Homo sapiens.
Data set [29] has as its target Glutamate [NMDA] receptor. In words: Displacement of [3H]nicotine from NMDA receptor (unknown origin). The data set is classed as protein-complex assay, Homo sapiens.
The subject of data set [30] is Rattus norvegicus. Put plainly: Memory enhancing effect in Sprague-Dawley rat model of ibotenic-acid-induced impairment of forebrain cholinergic projection system assessed as improvement in reference memory at 0.36 to 1.4 micromol/kg, po by radial arm maze test relative to control. The data set is classed as functional. As to conditions: dose 0.36-1.4 µmol/kg.
Data set [31] concerns the target 5-hydroxytryptamine receptor 1A (Homo sapiens, UniProt P08908). In words: Displacement of […] from 5-hydroxytryptamine receptor 1A (unknown origin).
A short description of data set [32]: In vivo agonist activity at nAChR in rat assessed as dopamine level in cortex at 3.6 micromol/kg, sc by microdialysis relative to control. The data set is classed as functional. As to conditions: dose 3.6 µmol/kg.
The target in data set [33] is Cholecystokinin receptor type A (Homo sapiens, UniProt P32238). In words: Displacement of [3H]nicotine from cholecystokinin receptor type A (unknown origin).
A further data set has as its target D(3) dopamine receptor (Homo sapiens, UniProt P35462). In words: Displacement of [3H]nicotine from dopamine D3 receptor (unknown origin).
For data set [34], the target named is GABA-A receptor alpha-1/beta-1 (Bos taurus, UniProt P08219+P08220).
Description: Competitive inhibition of bovine GABAA alpha1beta1 expressed in Xenopus laevis oocytes
A further data set addresses Acetylcholinesterase (Bos taurus, UniProt P23795).
Data set [35] can be described thus: Neuroprotective activity in rat neuron assessed as glutamic acid induced intracellular calcium level at 1 ug/ml preincubated for 5 mins followed by glutamic acid stimulation and measured for 30 mins (reference value: 305%). The format is functional. As to conditions: time 35 min.
Data set [36] in a line: Neuroprotective activity in rat neuron assessed as glutamic acid induced intracellular calcium level at 0.5 ug/ml preincubated for 5 mins followed by glutamic acid stimulation and measured for 30 mins (reference value: 305%). The format is functional. As to conditions: time 35 min. Background: A change in cytosolic calcium serves as a functional read-out for many receptors and channels.

Data set [37] is described as follows: Neuroprotective activity in rat neuron assessed as NMDA-induced intracellular calcium level at 1 ug/ml preincubated for 5 mins followed by glutamic acid stimulation and measured for 20 mins (reference value: 235%). The data set is classed as functional. As to conditions: time 25 min.
Data set [38] in a line: Neuroprotective activity in rat neuron assessed as glutamic acid induced intracellular calcium level at 3 ug/ml preincubated for 5 mins followed by glutamic acid stimulation and measured for 30 mins (reference value: 305%). The note with it: time 35 min. The format is functional.
For data set [39], the species on record is Mus musculus. In words: animal or person.
Description: Antinociceptive activity in naloxone treated mouse assessed as induction of Straub-tail response
The nature of data set [40]: Toxicity in iv dosed rat. The format is organism-based. The note with it: in vivo.
Data set [41] is described as follows: Displacement of [3H]-(-)-nicotine from rat cerebral cortex nAChR incubated for 60 mins by liquid scintillation spectrometry.
The species entered for data set [42] is Mus musculus. Put plainly: animal or person. This is another data set of the same source.
Description: Antinociceptive activity against mecamylamine-treated mouse
Data set [43] is filed under the species Mus musculus. Put plainly: animal or person. This is another data set of the same source.
Description: Antinociceptive activity in mouse
For data set [44], the target named is Neuronal acetylcholine receptor subunit alpha-7 (Homo sapiens, UniProt P36544).
Description: Displacement of [125I]alpha-bungarotoxin from human alpha7 nAChR expressed in K28 cell membrane
In data set [45] the target is T1, Neuronal acetylcholine receptor; alpha4/beta2. Put plainly: Binding affinity to rat alpha4beta2 nAChR. The data set is classed as protein-complex assay.
The target of data set [46] is T3, Neuronal acetylcholine receptor subunit alpha-7 (Rattus norvegicus, UniProt Q05941).
Description: Agonist activity at rat alpha7 nAChR
Data set [47] concerns the target T3, Neuronal acetylcholine receptor subunit alpha-7. The source holds these as a separate data set.
Description: Binding affinity to rat alpha7 nAChR
Data set [48] concerns the target T1, Neuronal acetylcholine receptor; alpha4/beta2. The source holds these as a separate data set.
Description: Agonist activity at rat alpha4beta2 nAChR
Data set [49] addresses T2, Neuronal acetylcholine receptor; alpha4/beta2 (Rattus norvegicus). Put plainly: Potency index, ratio of nicotine EC50 to test compound EC50 for agonist activity at rat alpha4beta2 nAChR. The data set is classed as protein-complex assay.
In data set [50] the target is Neuronal acetylcholine receptor subunit alpha-7 (Rattus norvegicus) (UniProt Q05941). In words: Potency index, ratio of nicotine EC50 to test compound EC50 for rat alpha7 nAChR.
For data set [51] the target is unchanged. In words: Potency index, ratio of nicotine Ki to test compound Ki for rat alpha7 nAChR.

T1 sequence (P09483 whole entry): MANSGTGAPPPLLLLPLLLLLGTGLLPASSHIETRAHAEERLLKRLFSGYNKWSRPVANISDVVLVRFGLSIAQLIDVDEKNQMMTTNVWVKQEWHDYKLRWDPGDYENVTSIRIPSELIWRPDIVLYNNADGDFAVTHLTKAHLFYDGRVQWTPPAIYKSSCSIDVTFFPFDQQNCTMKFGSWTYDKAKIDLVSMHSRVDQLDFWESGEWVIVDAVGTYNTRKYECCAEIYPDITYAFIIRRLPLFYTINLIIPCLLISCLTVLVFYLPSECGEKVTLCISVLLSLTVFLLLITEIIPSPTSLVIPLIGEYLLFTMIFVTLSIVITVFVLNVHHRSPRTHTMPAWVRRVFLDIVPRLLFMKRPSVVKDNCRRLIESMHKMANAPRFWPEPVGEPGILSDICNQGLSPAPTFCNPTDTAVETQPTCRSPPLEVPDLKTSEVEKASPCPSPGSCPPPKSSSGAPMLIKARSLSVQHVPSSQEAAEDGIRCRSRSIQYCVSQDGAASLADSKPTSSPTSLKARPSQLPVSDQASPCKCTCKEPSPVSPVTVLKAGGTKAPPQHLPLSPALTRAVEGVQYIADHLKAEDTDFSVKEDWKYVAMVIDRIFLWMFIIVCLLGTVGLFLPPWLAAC
T1 sequence (P12390 whole entry): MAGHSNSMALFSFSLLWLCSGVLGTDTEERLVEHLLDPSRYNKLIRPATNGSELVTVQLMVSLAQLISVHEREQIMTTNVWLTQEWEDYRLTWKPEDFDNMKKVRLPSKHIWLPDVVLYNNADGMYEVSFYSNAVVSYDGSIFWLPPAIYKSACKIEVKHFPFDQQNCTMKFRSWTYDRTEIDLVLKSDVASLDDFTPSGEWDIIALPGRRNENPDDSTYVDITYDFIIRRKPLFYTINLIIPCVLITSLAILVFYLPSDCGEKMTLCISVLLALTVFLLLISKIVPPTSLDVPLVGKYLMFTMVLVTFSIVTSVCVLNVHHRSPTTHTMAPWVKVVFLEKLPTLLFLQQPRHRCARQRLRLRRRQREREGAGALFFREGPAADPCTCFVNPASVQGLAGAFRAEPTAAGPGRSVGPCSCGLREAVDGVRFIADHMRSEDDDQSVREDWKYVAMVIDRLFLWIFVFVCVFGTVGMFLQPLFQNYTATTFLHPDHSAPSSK
T3 sequence (Q05941 whole entry): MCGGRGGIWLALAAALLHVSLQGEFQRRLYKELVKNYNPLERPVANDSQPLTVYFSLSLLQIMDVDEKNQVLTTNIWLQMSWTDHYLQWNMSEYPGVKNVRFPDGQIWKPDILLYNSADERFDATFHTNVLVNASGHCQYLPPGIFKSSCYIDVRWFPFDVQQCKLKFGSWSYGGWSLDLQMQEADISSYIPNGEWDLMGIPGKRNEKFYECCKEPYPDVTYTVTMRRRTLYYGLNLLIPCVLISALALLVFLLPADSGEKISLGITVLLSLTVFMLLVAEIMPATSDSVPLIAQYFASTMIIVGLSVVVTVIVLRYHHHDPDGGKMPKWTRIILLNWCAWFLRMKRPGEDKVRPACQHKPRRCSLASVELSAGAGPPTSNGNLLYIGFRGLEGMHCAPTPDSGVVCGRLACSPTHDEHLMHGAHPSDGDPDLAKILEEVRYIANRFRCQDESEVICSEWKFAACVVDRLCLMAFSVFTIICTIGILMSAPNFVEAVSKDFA
Sequence of Neuronal acetylcholine receptor subunit alpha-7 (Rattus norvegicus) (Q05941 whole entry): as above
Sequence of B2 bradykinin receptor (P30411 whole entry): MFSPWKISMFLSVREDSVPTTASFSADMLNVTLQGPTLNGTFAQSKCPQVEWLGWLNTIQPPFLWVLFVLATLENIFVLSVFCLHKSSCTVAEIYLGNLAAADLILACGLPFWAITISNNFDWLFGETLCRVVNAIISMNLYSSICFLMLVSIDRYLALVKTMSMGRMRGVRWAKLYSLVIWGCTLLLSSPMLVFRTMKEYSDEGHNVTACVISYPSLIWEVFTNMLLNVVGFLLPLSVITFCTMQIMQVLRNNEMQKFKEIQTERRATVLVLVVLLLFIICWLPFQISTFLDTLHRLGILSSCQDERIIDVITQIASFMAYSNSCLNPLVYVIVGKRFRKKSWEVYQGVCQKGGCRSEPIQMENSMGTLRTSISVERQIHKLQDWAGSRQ
Sequence of Muscarinic acetylcholine receptor M2 (P08172 whole entry): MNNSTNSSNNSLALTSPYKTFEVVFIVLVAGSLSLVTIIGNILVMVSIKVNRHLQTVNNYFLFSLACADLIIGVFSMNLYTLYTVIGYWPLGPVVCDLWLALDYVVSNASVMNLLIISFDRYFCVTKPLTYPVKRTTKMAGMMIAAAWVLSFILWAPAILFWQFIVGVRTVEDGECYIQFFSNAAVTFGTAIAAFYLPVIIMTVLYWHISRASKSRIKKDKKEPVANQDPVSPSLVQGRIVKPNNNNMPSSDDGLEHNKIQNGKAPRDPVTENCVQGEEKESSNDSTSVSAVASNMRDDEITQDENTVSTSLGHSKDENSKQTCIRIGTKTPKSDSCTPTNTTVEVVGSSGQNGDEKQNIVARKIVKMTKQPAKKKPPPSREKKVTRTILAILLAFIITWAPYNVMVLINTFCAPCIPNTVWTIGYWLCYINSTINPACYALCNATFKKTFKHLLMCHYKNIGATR
Sequence of Acetylcholinesterase (P23795 whole entry): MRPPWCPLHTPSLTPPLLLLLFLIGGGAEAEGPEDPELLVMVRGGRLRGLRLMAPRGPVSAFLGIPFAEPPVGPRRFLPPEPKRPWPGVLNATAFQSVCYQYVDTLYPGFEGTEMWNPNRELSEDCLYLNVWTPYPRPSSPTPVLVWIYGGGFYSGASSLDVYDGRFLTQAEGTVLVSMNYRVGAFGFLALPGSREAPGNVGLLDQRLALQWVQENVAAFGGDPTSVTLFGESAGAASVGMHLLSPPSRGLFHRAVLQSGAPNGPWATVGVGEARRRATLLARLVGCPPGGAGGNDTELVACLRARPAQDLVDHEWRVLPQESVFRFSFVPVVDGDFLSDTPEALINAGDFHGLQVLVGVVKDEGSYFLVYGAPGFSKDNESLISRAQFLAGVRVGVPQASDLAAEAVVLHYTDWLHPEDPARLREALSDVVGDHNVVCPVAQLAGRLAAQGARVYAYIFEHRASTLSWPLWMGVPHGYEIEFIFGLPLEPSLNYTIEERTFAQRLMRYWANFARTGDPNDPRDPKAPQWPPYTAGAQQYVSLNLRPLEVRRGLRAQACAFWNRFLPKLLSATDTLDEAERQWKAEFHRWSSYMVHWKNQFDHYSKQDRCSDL
Sequence of Muscarinic acetylcholine receptor M1 (P11229 whole entry): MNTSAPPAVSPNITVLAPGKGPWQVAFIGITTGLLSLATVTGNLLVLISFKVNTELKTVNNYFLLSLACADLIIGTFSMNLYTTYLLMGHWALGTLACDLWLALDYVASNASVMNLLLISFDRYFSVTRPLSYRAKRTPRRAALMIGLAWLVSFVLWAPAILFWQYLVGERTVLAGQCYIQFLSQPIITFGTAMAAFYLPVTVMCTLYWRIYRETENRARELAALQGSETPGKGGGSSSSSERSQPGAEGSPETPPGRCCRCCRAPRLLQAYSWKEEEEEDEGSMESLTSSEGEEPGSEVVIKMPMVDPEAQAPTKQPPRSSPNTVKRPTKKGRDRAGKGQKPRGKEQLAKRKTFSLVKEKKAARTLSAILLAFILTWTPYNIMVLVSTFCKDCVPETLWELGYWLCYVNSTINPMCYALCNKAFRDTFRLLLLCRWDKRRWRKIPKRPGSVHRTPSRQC
Sequence of Gastrin/cholecystokinin type B receptor (P32239 whole entry): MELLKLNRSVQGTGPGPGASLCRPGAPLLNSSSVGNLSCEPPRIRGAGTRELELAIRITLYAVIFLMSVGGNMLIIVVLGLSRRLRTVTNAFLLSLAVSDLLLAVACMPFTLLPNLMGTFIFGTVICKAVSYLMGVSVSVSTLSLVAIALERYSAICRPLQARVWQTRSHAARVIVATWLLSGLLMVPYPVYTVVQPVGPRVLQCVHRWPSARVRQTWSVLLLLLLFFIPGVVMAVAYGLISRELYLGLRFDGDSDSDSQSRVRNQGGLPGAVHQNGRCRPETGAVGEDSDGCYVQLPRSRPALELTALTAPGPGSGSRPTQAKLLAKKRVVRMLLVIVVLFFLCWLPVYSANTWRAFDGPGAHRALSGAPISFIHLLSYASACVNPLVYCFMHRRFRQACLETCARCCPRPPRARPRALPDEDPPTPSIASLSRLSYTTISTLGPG
Sequence of 5-hydroxytryptamine receptor 1A (P08908 whole entry): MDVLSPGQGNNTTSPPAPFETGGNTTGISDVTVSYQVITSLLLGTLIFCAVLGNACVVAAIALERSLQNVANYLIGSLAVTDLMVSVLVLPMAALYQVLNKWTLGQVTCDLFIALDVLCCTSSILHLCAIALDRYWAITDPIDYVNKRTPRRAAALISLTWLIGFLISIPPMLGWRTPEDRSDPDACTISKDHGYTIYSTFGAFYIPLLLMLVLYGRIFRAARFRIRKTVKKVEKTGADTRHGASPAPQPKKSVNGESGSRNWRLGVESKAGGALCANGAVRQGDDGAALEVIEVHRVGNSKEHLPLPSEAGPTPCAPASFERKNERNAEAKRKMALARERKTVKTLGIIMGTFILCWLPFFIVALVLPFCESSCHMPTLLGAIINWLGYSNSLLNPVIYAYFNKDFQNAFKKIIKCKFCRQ
Sequence of Neuropeptide Y receptor type 2 (P49146 whole entry): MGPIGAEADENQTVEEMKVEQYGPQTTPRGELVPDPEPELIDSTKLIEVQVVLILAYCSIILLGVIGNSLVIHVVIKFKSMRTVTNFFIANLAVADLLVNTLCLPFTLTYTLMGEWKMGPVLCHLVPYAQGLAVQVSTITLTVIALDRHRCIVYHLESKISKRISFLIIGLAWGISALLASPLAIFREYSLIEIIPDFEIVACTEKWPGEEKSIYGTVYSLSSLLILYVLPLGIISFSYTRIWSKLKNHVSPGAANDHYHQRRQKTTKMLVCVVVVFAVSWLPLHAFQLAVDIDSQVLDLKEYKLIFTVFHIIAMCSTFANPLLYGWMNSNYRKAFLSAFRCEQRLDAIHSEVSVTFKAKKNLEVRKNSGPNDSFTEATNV

Regarding `O=C([O-])c1ccc[n+](CCOC(=O)c2cc(Br)c[nH]2)c1`, in data set [1], the IC50 was 80 µM.

For `CN(C)CC/C=C/c1cccnc1`, the IC50 (on Endothelin-1 receptor; in data set [4]; in [5]; on B2 bradykinin receptor; in [10]; in data set [11]) was greater than 10 µM in each case. The IC50 (in data set [15]; in data set [16]; in [17]; at Thromboxane A2 receptor; at Histamine H3 receptor; in [19]) was greater than 10 µM throughout. Also, the concentration for half-maximal inhibition (IC50) in data set [21], in data set [22], in [23], in [24], in [28] and in [29] was greater than 10 µM in each case. Besides, the IC50 (in [31]; in [33]; on D(3) dopamine receptor) was greater than 10 µM in each case. The values for the Emax (in the data set listed under Rattus norvegicus [2]; in data set [20]) were 81% and 79%, respectively. The Activity in data set [3] came to 170%; in [8], 150%; with Rattus norvegicus [12], 50%; in the data set with Rattus norvegicus [14], 40%; in data set [18] it was 190%; in data set [26], 492%. The Activity in data set [32] stood at 150%. The 50% lethal dose (LD50) at 672 h in [6], in data set [7], in data set [9] and in data set [25] was 1.8e+06 µmol/kg each time. The molecule also gave a Ki in data set [13] of 0.026 µM. This molecule displayed an EC50 in data set [27] of 0.732 µM. Also, the “fold change (FC)” value in the data set with Rattus norvegicus [30] turned out to be 2.

`C[n+]1cccc(C(=O)[O-])c1` [TRIGONELLINE] yielded a Ki in data set [34] of 0.013 µM. Half-maximal inhibition on Acetylcholinesterase (IC50) required 233 µM.

As for `O=C([O-])c1ccc[n+](CCOC(=O)c2ccc[nH]2)c1`, the Activity in data set [35] turned out to be 65.4%; in data set [36] it was 58.1%; in data set [37] it was 63.5%; in data set [38], 25.1%.

Turning to `Clc1ccc(C2CC3CCC2N3)cn1` (stereo in doubt; (+)) [EPIBATIDINE], the ED50 in the data set listed under Mus musculus [39] is 0.02 mg/kg; in the data set filed under Mus musculus [42], 0.289 mg/kg; in the data set filed under Mus musculus [43], 0.0136 mg/kg. This molecule had an LD50 in data set [40] of less than 0.125 µmol/kg. The same molecule returned an IC50 in data set [41] of 0.0001 µM. For the same molecule, the inhibition constant (Ki) in data set [44] was 0.0022 µM.

Turning to `c1cncc(C2=NCCCC2)c1` [ANABASEINE], the Ki in data set [45] was determined as 0.032 µM; in data set [47], 0.058 µM. For the same molecule, the concentration for a half-maximal effect (EC50) came to 6.7 µM in [46] and 4.2 µM in [48]. The Ratio EC50 was 3 in data set [49] and 7 in data set [50]. The Ratio Ki in data set [51] worked out at 7.

(Values after ChEMBL document CHEMBL4673260, “Pyridine alkaloids with activity in the central nervous system” (Bioorg Med Chem, 2020).)
